Measurements taken from the supplement of paper PMC10307832.

What was measured:
Assay in all cases: relative viability (nuclei count vs DMSO), 5 days (fraction); higher = more cells survive
[1] = compound: Cc1nc(NC(=O)N2CCC[C@H]2C(N)=O)sc1-c1ccnc(C(C)(C)C(F)(F)F)c1 [Alpelisib] + O=C(c1cc(Cc2n[nH]c(=O)c3ccccc23)ccc1F)N1CCN(C(=O)C2CC2)CC1 [Olaparib] (partner 8 µM)
Procedure, shortened: (§1)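 Cells from lung cancer lines were seeded into 1536-well plates and, one day later, dosed by pin tool. Treatments were either a single drug or a fixed dose of an anchor drug with five library-drug doses (not always all listed) in √10 steps. After 5 days, nuclei were stained in a one-step fixation (final 0.05% Triton X-100, 1% formaldehyde, 1 ug/ml Hoechst) and counted on 4× images, and relative viability is the treated-to-vehicle nuclei ratio, as the median of duplicate plates.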

[2] = compound: CCCS(=O)(=O)Nc1ccc(F)c(C(=O)c2c[nH]c3ncc(-c4ccc(Cl)cc4)cc23)c1F [Vemurafenib] + CC(=O)c1c(C)c2cnc(Nc3ccc(N4CCNCC4)cn3)nc2n(C2CCCC2)c1=O [Palbociclib] (partner 0.5 µM)
Procedure, shortened: as §1

[3] = compound: Cc1nc(NC(=O)N2CCC[C@H]2C(N)=O)sc1-c1ccnc(C(C)(C)C(F)(F)F)c1 [Alpelisib] + O=C(CCCCCCC(=O)Nc1ccccc1)NO [Vorinostat] (partner 1 µM)
Procedure, shortened: as §1

[4] = compound: COc1cccc2cc(-c3nc([C@H]4CC[C@H](C(=O)O)CC4)n4ncnc(N)c34)[nH]c12 [OSI-027] + O=C(c1cc(Cc2n[nH]c(=O)c3ccccc23)ccc1F)N1CCN(C(=O)C2CC2)CC1 [Olaparib] (partner 8 µM)
Procedure, shortened: as §1

UMC-11
relative viability ([1]; first compound 0.04 µM): 0.362
relative viability ([1]; first compound 0.1265 µM): 0.328
relative viability ([1]; first compound 0.4 µM): 0.389
relative viability ([1]; first compound 1.265 µM): 0.346
relative viability ([1]; first compound 4 µM): 0.315
relative viability ([2]; first compound 0.03162 µM): 0.328
relative viability ([2]; first compound 0.1 µM): 0.313
relative viability ([2]; first compound 1 µM): 0.315
relative viability ([3]; first compound 0.04 µM): 0.374
relative viability ([3]; first compound 0.1265 µM): 0.31
relative viability ([3]; first compound 0.4 µM): 0.403
relative viability ([3]; first compound 1.265 µM): 0.344
relative viability ([3]; first compound 4 µM): 0.31
relative viability ([4]; first compound 0.01 µM): 0.388
relative viability ([4]; first compound 0.03162 µM): 0.42
relative viability ([4]; first compound 0.1 µM): 0.31
relative viability ([4]; first compound 0.3162 µM): 0.349
relative viability ([4]; first compound 1 µM): 0.291
